Experimental data taken from patent US20100286145A1, “ISOPHTHALAMIDE DERIVATIVES INHIBITING BETA-SECRETASE ACTIVITY” (CoMentis, Inc., priority 2007, published 2010).

What follows are compounds tested against memapsin 2 (Homo sapiens, UniProt P56817) (assay: Inhibition of memapsin 2 beta-secretase activity (fluorogenic substrate FS-2)). Details: memapsin 2, pH 4, 37° C., 20 minutes pre-incubation; read-out: M2Ki.
Assay type: biochemical
Method: Potency of compounds were determined by measurement of their inhibition of memapsin 2 activity toward a fluorescent substrate. Kinetic inhibition experiments were performed using the procedure as described in Ermolieff, et al. (Biochemistry 39:12450-12456 (2000), the teachings of which are incorporated hereby in their entirety). Briefly, assays were performed at pH 4, 37° C., by pre-incubation of memapsin 2 enzyme with compound for 20 minutes. Activity measurements were initiated by addition of a fluorogenic substrate FS-2 (Bachem Americas, Torrance, Calif.) MCA-SEVNLDAEFR-DNP (SEQ ID NO.: 2). The substrate was derived from 10 amino acids of the human amyloid precursor protein (APP), with the Swedish variant amino acids at the beta-secretase cleavage site. The terminal amino acid was modified from arginine to lysine to facilitate derivatization with a functional group for detection by autofluorescence. The amino acid sequence of the “core” peptide of the substrate is SEVNLDAEFK (SEQ ID NO.: 3). The amino terminus was derivatized with (7-methoxycoumarin-4-yl)acetyl (MCA), and the epsilon amine of the lysine side chain of the terminal residue (K in sequence SEVNLDAEFK (SEQ ID NO.: 3)) was derivatized with 2,4-dinitorphenyl (DNP).
Fluorescent signal increase over time was measured as a rate of hydrolysis of the peptide substrate. Inhibition of hydrolytic rate was expressed relative to uninhibited controls and fit to a model for tight-binding inhibitors (J. Bieth, in “Proteinase Inhibitors,” Bayer Symposium V, 463-469, 1974, which is herein incorporated by reference for all purposes in its entirety).

Chain of memapsin 2 (P56817 46-501): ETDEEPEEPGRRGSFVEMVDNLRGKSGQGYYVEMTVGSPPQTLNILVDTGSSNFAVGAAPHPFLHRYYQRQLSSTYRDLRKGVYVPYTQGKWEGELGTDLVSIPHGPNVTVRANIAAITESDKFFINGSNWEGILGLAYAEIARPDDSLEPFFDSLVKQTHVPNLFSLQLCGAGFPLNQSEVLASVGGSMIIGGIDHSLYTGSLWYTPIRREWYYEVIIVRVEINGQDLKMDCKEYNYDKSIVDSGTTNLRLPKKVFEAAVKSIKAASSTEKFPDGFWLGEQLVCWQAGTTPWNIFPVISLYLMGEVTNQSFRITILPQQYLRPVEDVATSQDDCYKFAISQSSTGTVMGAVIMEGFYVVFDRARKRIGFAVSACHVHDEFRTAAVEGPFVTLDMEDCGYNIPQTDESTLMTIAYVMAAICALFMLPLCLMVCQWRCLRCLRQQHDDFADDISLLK

SMILES	Ki
COC(=O)[C@H](CO)NC(=O)c1cc(C(=O)N[C@@H](Cc2ccccc2)[C@H](O)CNCc2cccc(OC)c2)cc(C(=O)N(C)Cc2nc(C)cs2)c1 [Compound 62, (S)-methyl 3-hydroxy-2-(3-((2S,3R)-3-hydroxy-4-(3-methoxybenzylamino)-1-phenylbutan-2-ylcarbamoyl)-5-(methyl((4-methylthiazol-2-yl)methyl)carbamoyl)benzamido)propanoate]	< 300 nM
COc1cccc(CNC[C@@H](O)[C@H](Cc2ccccc2)NC(=O)c2cccc(C(=O)N(C)Cc3ccco3)c2)c1 [Compound 14, N1-(furan-2-ylmethyl)-N3-((2S,3R)-3-hydroxy-4-(3-methoxybenzylamino)-1-phenylbutan-2-yl)-N1-methylisophthalamide]	> 501 nM
C[C@@H](NC(=O)c1cc(C(=O)N[C@@H](Cc2ccccc2)[C@H](O)CNCc2cc(C(C)(C)C)ccc2O[Si](C)(C)C(C)(C)C)cc(N(C)S(C)(=O)=O)c1)c1ccccc1 [Compound 109, N1-((2S,3R)-4-(5-tert-butyl-2-(tert-butyldimethylsilyloxy)benzylamino)-3-hydroxy-1-phenylbutan-2-yl)-5-(N-methylmethylsulfonamido)-N3-((R)-1-phenylethyl)isophthalamide]	< 300 nM
Cc1csc(CN(C)C(=O)c2cccc(C(=O)N[C@@H](Cc3ccccc3)[C@H](O)CNC(C)c3cccnc3)c2)n1 (stereo partly drawn) [Compound 43, N1-((2S,3R)-3-hydroxy-1-phenyl-4-(1-(pyridin-3-yl)ethylamino)butan-2-yl)-N3-methyl-N3-((4-methylthiazol-2-yl)methyl)isophthalamide]	> 501 nM
Cc1csc(CN(C)C(=O)c2cccc(C(=O)N[C@@H](Cc3ccccc3)[C@H](O)CNCc3ccc(C(F)(F)F)nc3)c2)n1 [Compound 7, N1-((2S,3R)-3-hydroxy-1-phenyl-4-((6-(trifluoromethyl)pyridin-3-yl)methylamino)butan-2-yl)-N3-methyl-N3-((4-methylthiazol-2-yl)methyl)isophthalamide]	> 501 nM
Cc1csc(CN(C)C(=O)c2cccc(C(=O)N[C@H](Cc3ccccc3)[C@H](O)CNCc3cncc(C(C)C)c3)c2)n1 [Compound 151, N1-((2R,3R)-3-hydroxy-4-((5-isopropylpyridin-3-yl)methylamino)-1-phenylbutan-2-yl)-N3-methyl-N3-((4-methylthiazol-2-yl)methyl)isophthalamide]	> 501 nM
COc1cccc(CNC[C@@H](O)[C@H](Cc2ccccc2)NC(=O)c2cccc(C(=O)N(C)Cc3ccccn3)c2)c1 [Compound 45, N1-((2S,3R)-3-hydroxy-4-(3-methoxybenzylamino)-1-phenylbutan-2-yl)-N3-methyl-N3-(pyridin-2-ylmethyl)isophthalamide]	> 501 nM
COc1cccc(CNC[C@@H](O)[C@H](Cc2ccccc2)NC(=O)c2cc(C(=O)NCc3cccc(C)n3)cc(N(C)S(C)(=O)=O)c2)c1 [Compound 127, N1-((2S,3R)-3-hydroxy-4-(3-methoxybenzylamino)-1-phenylbutan-2-yl)-5-(N-methylmethylsulfonamido)-N3-((6-methylpyridin-2-yl)methyl)isophthalamide]	> 501 nM
Cc1csc(CNC(=O)c2cccc(C(=O)N[C@@H](Cc3ccccc3)[C@H](O)CNCc3ccc(CS(C)(=O)=O)c(C)n3)c2)n1 [Compound 101, N1-((2S,3R)-3-hydroxy-4-((6-methyl-5-(methylsulfonylmethyl)pyridin-2-yl)methylamino)-1-phenylbutan-2-yl)-N3-((4-methylthiazol-2-yl)methyl)isophthalamide]	> 501 nM
COc1cccc(CNC[C@@H](O)[C@H](Cc2ccccc2)NC(=O)c2cc(OC)cc(C(=O)N[C@H](C)c3ccccc3)c2)c1 [Compound 69, N1-((2S,3R)-3-hydroxy-4-(3-methoxybenzylamino)-1-phenylbutan-2-yl)-5-methoxy-N3-((R)-1-phenylethyl)isophthalamide]	> 501 nM
COc1cccc(CNC[C@@H](O)[C@H](Cc2ccccc2)NC(=O)c2cccc(C(=O)N(C)c3nc(C)cs3)c2)c1 [Compound 84, N1-((2S,3R)-3-hydroxy-4-(3-methoxybenzylamino)-1-phenylbutan-2-yl)-N3-methyl-N3-(4-methylthiazol-2-yl)isophthalamide]	> 501 nM
Cc1csc(CN(C)C(=O)c2cccc(C(=O)N[C@@H](Cc3ccccc3)[C@H](O)CNCc3cccc4cc[nH]c34)c2)n1 [Compound 39, N1-((2S,3R)-4-((1H-indol-7-yl)methylamino)-3-hydroxy-1-phenylbutan-2-yl)-N3-methyl-N3-((4-methylthiazol-2-yl)methyl)isophthalamide]	< 300 nM
Cc1csc(CN(C)C(=O)c2cccc(C(=O)N[C@@H](Cc3ccccc3)[C@H](O)CNCc3cccnc3)c2)n1 [Compound 15, N1-((2S,3R)-3-hydroxy-1-phenyl-4-(pyridin-3-ylmethylamino)butan-2-yl)-N3-methyl-N3-((4-methylthiazol-2-yl)methyl)isophthalamide]	> 501 nM
Cc1csc(CN(C)C(=O)c2cccc(C(=O)N[C@@H](Cc3ccccc3)[C@H](O)CNCc3cc(C(C)C)cnc3C)c2)n1 [Compound 153, N1-((2S,3R)-3-hydroxy-4-((5-isopropyl-2-methylpyridin-3-yl)methylamino)-1-phenylbutan-2-yl)-N3-methyl-N3-((4-methylthiazol-2-yl)methyl)isophthalamide]	< 300 nM
COc1cccc(CNC[C@@H](O)[C@H](Cc2ccccc2)NC(=O)c2cc(OC)cc(C(=O)N(CCO)Cc3nc(C)cs3)c2)c1 [Compound 57, N1-((2S,3R)-3-hydroxy-4-(3-methoxybenzylamino)-1-phenylbutan-2-yl)-N3-(2-hydroxyethyl)-5-methoxy-N3-((4-methylthiazol-2-yl)methyl)isophthalamide]	< 300 nM

Same assay, conditions: memapsin 2, pH 4, 37° C., fluorogenic substrate FS-2; read-out: M2Ki

SMILES	Ki
Cc1csc(CN(C)C(=O)c2cccc(C(=O)N[C@@H](Cc3ccccc3)[C@H](O)CNCc3cncc(C(C)CO)c3)c2)n1 (stereo partly drawn) [Compound 314, N1-((2S,3R)-3-hydroxy-4-((5-(1-hydroxypropan-2-yl)pyridin-3-yl)methylamino)-1-phenylbutan-2-yl)-N3-methyl-N3-((4-methylthiazol-2-yl)methyl)isophthalamide]	< 300 nM
Cc1csc(CN(C)C(=O)c2cccc(C(=O)N[C@@H](Cc3ccccc3)[C@H](O)CNCc3cc(OC(=O)CN(C)C)cc(C(C)C)c3)c2)n1 [Compound 311, 3-(((2R,3S)-2-hydroxy-3-(3-(methyl((4-methylthiazol-2-yl)methyl)carbamoyl)benzamido)-4-phenylbutylamino)methyl)-5-isopropylphenyl 2-(dimethylamino)acetate]	< 300 nM
Cc1csc(CN(C)C(=O)c2cc(C(=O)N[C@@H](Cc3ccccc3)[C@H](O)CNCc3cncc(C(C)C)c3)cc(-c3cn[nH]c3)c2)n1 [Compound 295, N1-((2S,3R)-3-hydroxy-4-((5-isopropylpyridin-3-yl)methylamino)-1-phenylbutan-2-yl)-N3-methyl-N3-((4-methylthiazol-2-yl)methyl)-5-(1H-pyrazol-4-yl)isophthalamide]	< 300 nM
CC(C)c1cncc(CNC[C@@H](O)[C@H](Cc2ccccc2)NC(=O)c2cccc(C(=O)N(C)Cc3nc(Br)cs3)c2)c1 [Compound 315, N1-((4-bromothiazol-2-yl)methyl)-N3-((2S,3R)-3-hydroxy-4-((5-isopropylpyridin-3-yl)methylamino)-1-phenylbutan-2-yl)-N1-methylisophthalamide]	< 300 nM
Cc1csc(CN(C)C(=O)c2cccc(C(=O)N[C@@H](Cc3ccccc3)[C@H](O)CNCc3cc(C(F)(F)F)ccn3)c2)n1 [Compound 302, N1-((2S,3R)-3-hydroxy-1-phenyl-4-((4-(trifluoromethyl)pyridin-2-yl)methylamino)butan-2-yl)-N3-methyl-N3-((4-methylthiazol-2-yl)methyl)isophthalamide]	< 300 nM
CN(Cc1nc(CF)cs1)C(=O)c1cccc(C(=O)N[C@@H](Cc2ccccc2)[C@H](O)CNCc2cncc(C(C)(C)F)c2)c1 [Compound 281, N1-((4-(fluoromethyl)thiazol-2-yl)methyl)-N3-((2S,3R)-4-((5-(2-fluoropropan-2-yl)pyridin-3-yl)methylamino)-3-hydroxy-1-phenylbutan-2-yl)-N1-methylisophthalamide]	< 300 nM
COc1cccc(CNC[C@@H](O)[C@H](Cc2ccccc2)NC(=O)c2cccc(C(=O)N(C)Cc3nc(C)cs3)c2O)c1 [Compound 296, 2-hydroxy-N1-((2S,3R)-3-hydroxy-4-(3-methoxybenzylamino)-1-phenylbutan-2-yl)-N3-methyl-N3-((4-methylthiazol-2-yl)methyl)isophthalamide]	> 501 nM
CNc1cc(CNC[C@@H](O)[C@H](Cc2ccccc2)NC(=O)c2cccc(C(=O)N(C)Cc3nc(C)cs3)c2)cc(C(F)(F)F)c1 [Compound 283, N1-((2S,3R)-3-hydroxy-4-(3-(methylamino)-5-(trifluoromethyl)benzylamino)-1-phenylbutan-2-yl)-N3-methyl-N3-((4-methylthiazol-2-yl)methyl)isophthalamide]	< 300 nM
